Where a name gives a salt, the structure may show the parent alone.
Target: T1, H+/K+ ATPase (Oryctolagus cuniculus, UniProt P27112)
T1 construct: The stomach tissue of the rabbit was separated; from tissue; host or cells: rabbit stomach (fundus) mucosa, membrane fraction obtained by differential and Ficoll centrifugation
Assay: determination of compounds' inhibition of H+/K+ ATPase enzyme activity (malachite green, OD 620 nm)
Type: biochemical
Conditions: enzyme extracted from rabbit stomach tissue; pH 6.5; ATP 500 μM; 37° C.
Excerpt: Test example: determination of compounds' inhibition of H^+/K+ATPase enzyme activity
The following experiment is used to determine the inhibitory effect of the compound of the present invention on the H^+/K+ATPase enzyme activity.
1. Experimental materials
Plate reader: SpectraMax M5 (MD)
Malachite Green (Sigma Aldrich, 213020-25G)
Ammonium molybdate (Sigma Aldrich, 277908-20G)
ATP (Sigma Aldrich, A1852-1VL).
Enzyme working solution: titrating the enzyme, diluting the enzyme with buffer 1, and during the reaction, taking 5 μl of the diluted solution into 50 μl reaction system.
ATP solution: 100 mM ATP was diluted to 5 mM with no K+buffer, and 5 μl of the diluted solution was added to the 50 μl reaction system, that is, the final concentration of ATP was 500 μM.
MLG color development liquid: 0.12% MLG, 7.5% ammonium molybdate, and […] Tween-20 was mixed as 100:25:2, and adding 15 μl of the mixture into each well during detection.
Buffer 1: 50 mM Tris-HCl pH 6.5, 5 mM magnesium chloride (magnesium chloride), 10 μM valinomycin (valinomycin).
Buffer 2: 50 mM Tris-HCl pH 6.5, 5 mM magnesium chloride (magnesium chloride), 10 μM valinomycin (valinomycin), 20 mM KCl.
Homogenization buffer: 10 mmol/L Tris-HCl, pH 6.8, 0.25M sucrose (sucrose), 1 mmol/LEDTA. 7.5% Ficoll layering solution: homogenization buffer+7.5% (W/W) 400 (Ficoll 400).
3.1. H^+/K^+ ATPase enzyme extraction
(1) The stomach tissue of the rabbit was separated, and the blood was washed with tap water, food residue.
(2) The fundus portion was thoroughly washed with pre-cooled NaCl solution to remove surface mucus.
(3) The stripped mucosa was filled into a sample bag or a 50 ml centrifuge tube, and quickly freezing in a liquid nitrogen tank.
(4) The tissue was removed, minced with surgical scissors, and a pre-cooled homogenization buffer (4 ml/g tissue) was added and homogenized in a tissue homogenizer for 2 to 10 minutes.
(5) After homogenization, if there were larger tissue particles, they could be removed by centrifugation (600 g, 10 min), and then the supernatant was transferred to a clean centrifuge tube. After centrifugation at 20000 g for 30 minutes, then the supernatant was transferred to a clean centrifuge tube at 100000 g for 90 minutes and the precipitate was collected.
(6) Resuspending the precipitate with homogenization buffer, blowing uniformly, adding 7.5% Ficoll layering solution at equal ratio, centrifuging at 100000 g for 90 minutes, and collecting the precipitate.
(7) Resuspending the precipitate with homogenization buffer, blowing uniformly, and the protein concentration was measured by Bradford. Freezing in tubes at −80° C. for later use.
3.2. H^+/K^+ ATPase activity experiment
(1) Adding 35 μl of reaction buffer to each experimental well, and then added 35 μl of buffer 1.
(2) Adding 5 μl buffer 1 containing 10% DMSO to the whole enzyme and buffer well.
(3) Adding 5 μl of 10× compound working solution to the compound well and mixing well.
(4) Adding 5 of buffer 1 to the buffer well.
(5) Adding 5 μl of 10× enzyme working solution to the remaining wells, mixing and incubating at 37° C. for 30 minutes.
(6) Adding 5 μl of 10XATP working solution to all experimental wells, and incubating at 37° C. for 20 min.
(7) Adding 15 μl MLG chromogenic solution to all experimental wells, and uniformly mixing and incubating at room temperature for 5-30 min.
(8) The reading number of 620 nm was detected by an M5 instrument.
The inhibition rate is calculated with the following formula: Inhibition rate (IC50)=[OD (sample well)−OD (full enzyme well containing potassium chloride)]/[(OD (full enzyme well containing potassium chloride)−(OD (full enzyme well without potassium chloride Enzyme hole)]×100%

T1 sequence (P27112 whole entry): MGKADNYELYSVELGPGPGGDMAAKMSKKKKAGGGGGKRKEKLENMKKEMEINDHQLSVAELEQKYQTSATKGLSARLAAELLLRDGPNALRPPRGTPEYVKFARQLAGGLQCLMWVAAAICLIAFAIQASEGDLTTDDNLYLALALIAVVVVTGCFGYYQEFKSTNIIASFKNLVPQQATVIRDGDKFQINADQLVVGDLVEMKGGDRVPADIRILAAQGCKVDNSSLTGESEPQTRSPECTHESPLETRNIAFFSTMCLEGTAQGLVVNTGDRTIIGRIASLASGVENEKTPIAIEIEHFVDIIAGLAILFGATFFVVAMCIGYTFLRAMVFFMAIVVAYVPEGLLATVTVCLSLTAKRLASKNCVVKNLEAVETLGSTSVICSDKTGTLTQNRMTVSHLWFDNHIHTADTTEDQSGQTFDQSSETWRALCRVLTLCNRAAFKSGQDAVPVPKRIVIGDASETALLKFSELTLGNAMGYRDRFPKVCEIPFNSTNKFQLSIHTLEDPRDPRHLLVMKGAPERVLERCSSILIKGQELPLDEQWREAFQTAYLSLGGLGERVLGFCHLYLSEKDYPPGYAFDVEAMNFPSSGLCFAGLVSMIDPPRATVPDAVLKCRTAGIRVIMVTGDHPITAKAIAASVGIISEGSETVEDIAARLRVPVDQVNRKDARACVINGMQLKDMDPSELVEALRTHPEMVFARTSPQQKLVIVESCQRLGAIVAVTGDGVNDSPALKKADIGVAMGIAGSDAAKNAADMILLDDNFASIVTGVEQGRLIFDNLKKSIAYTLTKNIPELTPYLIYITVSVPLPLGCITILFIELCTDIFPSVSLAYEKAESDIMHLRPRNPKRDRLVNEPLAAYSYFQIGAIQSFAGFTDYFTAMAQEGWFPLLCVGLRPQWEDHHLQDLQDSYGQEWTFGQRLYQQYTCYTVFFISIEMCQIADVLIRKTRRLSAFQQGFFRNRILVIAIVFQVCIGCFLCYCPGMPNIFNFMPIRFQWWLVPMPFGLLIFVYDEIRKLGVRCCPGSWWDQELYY
T1 sequence (P18597 whole entry partner): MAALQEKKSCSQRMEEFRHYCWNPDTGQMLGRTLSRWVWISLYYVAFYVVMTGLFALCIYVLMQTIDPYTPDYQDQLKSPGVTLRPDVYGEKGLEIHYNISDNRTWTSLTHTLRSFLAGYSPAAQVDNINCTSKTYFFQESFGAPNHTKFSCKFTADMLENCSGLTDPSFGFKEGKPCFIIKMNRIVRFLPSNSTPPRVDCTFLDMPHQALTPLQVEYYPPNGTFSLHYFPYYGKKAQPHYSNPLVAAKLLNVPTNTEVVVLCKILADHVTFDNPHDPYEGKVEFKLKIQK

Compound	IC50 [nM]
COC(=O)c1cccc(Cn2nc3c(c2-c2ccccc2F)CN(C)C3)c1 [Example 1, 3-((3-(2-fluorophenyl)-5-methyl-5,6-dihydropyrrolo[3,4-c]pyrazole-2(4H)-yl)methyl)benzoic acid ester]	77.6
CCCCOC(=O)c1cccc(Cn2nc3c(c2-c2ccccc2F)CN(C)C3)c1 [Example 2, 3-((3-(2-fluorophenyl)-5-methyl-5,6-dihydropyrrolo [3,4-c]pyrazole-2(4H)-yl)methyl)butyl benzoate]	96.8
CCOC(=O)c1cccc(Cn2nc3c(c2-c2ccccc2F)CN(C)C3)c1 [Example 3, 3-((3-(2-fluorophenyl)-5-methyl-5,6-dihydropyrrolo[3,4-c]pyrazole-2(4H)-yl)methyl) ethyl benzoate]	90.4
CN1Cc2nn(Cc3cccc(C(=O)NC4CC4)c3)c(-c3ccccc3F)c2C1 [Example 4, N-cyclopropyl-3-((3-(2-fluorophenyl)-5-methyl-5,6-dihydropyrrolo[3,4-c]pyrazole-2(4H)-Yl)methyl)benzamide]	539
CN1Cc2nn(Cc3cccc(C(=O)OC(C)(C)C(N)=O)c3)c(-c3ccccc3F)c2C1 [Example 5, 1-amino-2-methyl-1-oxopropan-2-yl-3-((3-(2-fluorophenyl)-5-methyl-5,6-dihydropyrrolo [3,4-c]pyrazole-2(4H)-yl)methyl)benzoate]	225
COC(=O)c1cccc(Cn2nc3c(c2-c2ccccc2C)CN(C)C3)c1 [Example 6, 3-((5-methyl-3-(o-tolyl)-5,6-dihydropyrrolo[3,4-c]pyrazole-2(4H)-yl)methyl) Methyl benzoate]	36.6
COC(=O)c1cc(Cn2nc3c(c2-c2ccccc2C)CN(C)C3)ccc1F [Example 7, 2-Fluoro-5-((5-methyl-3-(o-tolyl)-5,6-dihydropyrrole [3,4-c]pyrazole-2 (4H)-yl)methane Yl) methyl benzoate]	39
Cc1ccccc1-c1c2c(nn1Cc1cccc(C(=O)OC(C)(C)C)c1)CN(C)C2 [Example 8, 3-((5-Methyl-3-(o-tolyl)-5,6-dihydropyrrolo[3,4-c]pyrazole-2(4H)-yl)methyl) benzene Tert-butyl formate]	589
COC(=O)c1cccc(Cn2nc3c(c2-c2ccc(F)cc2F)CN(C)C3)c1 [Example 9, 3-((3-(2,4-Difluorophenyl)-5-methyl-5,6-dihydropyrrolo [3,4-c]pyrazole-2(4H)-yl) Methyl) methyl benzoate]	61.4

Source: patent US12378252B2, “Pyrrolopyrazole derivatives, preparation method thereof and application thereof in medicine” (SHANGHAI MEDICILON INC., priority 2019, dated 2025)
